Reference: publication PMC11956012, “Optimization of Cyclophilin B-Targeted Tri-vector Inhibitors for Novel MASH Treatments” (Journal of Medicinal Chemistry, 2025)

What was measured:
Cyp A = Cyp A (Homo sapiens, UniProt P62937)
Procedure: (§1) The cyclophilin binding properties of the compounds were assessed by Surface Plasmon Resonance (SPR) against Cyp A, B and D isoforms (Table 1, representative sensorgrams are shown in Figure 3A).[35]
Surface Plasmon Resonance (SPR)
(§2) SPR measurements were performed on a Biacore T200 instrument (Cytiva). Ni2+ -
(§3) nitrilotriacetic acid (NTA) sensor chips, 1-ethyl-3-(3-diaminopropyl) carbodiimide
(§4) hydrochloride (EDC) and N hydroxy succinimide (NHS) were purchased from Cytiva.
(§5) Immobilization and covalent stabilization of His-Cyps Pure His-cyclophilins on the NTA
(§6) sensor chip was performed essentially as described. [Wear et al., 2017, FEBS OpenBio], using
(§7) 200 nM concentrations of each protein, in Running Buffer (PBS, pH7.4; 0.05 % surfactant P20,
(§8) 2% v/v ethanol; 50 µM EDTA), at 30 µl min-1 with 60 second contact times on the activated
(§9) NTA surfaces. This gave signals of 1,921 RU for His-CypA, 1932 RU for His-CypB and 1,397
(§10) RU for His-CypD. Specific surface protein activity was assayed by passing saturating amounts
(§11) activity were obtained for His-CypA, -B and –D, respectively.
Kinetic titration experiments
(§12) Single cycle kinetic titration binding experiments were performed in triplicate at 25 °C. 3-fold
(§13) injected over the sensor surface, at 100 µl min-1 with a 90 s contact time and a 90 s dissociation
(§14) time. The sensor surface was regenerated between experiments by dissociating any formed
(§15) complex in running buffer for at least 1,200 seconds. The apparent on-rate (k+) and off-rate (k-
(§16) ) constants and the equilibrium dissociation constant (Kd) were calculated from reference

Cyp D = Cyp D (Homo sapiens, UniProt P30405)
Procedure: as §1
Surface Plasmon Resonance (SPR)
as §2, §3, §4, §5, §6, §7, §8, §9, §10, §11
Kinetic titration experiments
as §12, §13, §14, §15, §16

Cyp B = Cyp B (Homo sapiens, UniProt P23284); assay: biochemical
Sequence of Cyp B (P23284 32-216 limits assumed): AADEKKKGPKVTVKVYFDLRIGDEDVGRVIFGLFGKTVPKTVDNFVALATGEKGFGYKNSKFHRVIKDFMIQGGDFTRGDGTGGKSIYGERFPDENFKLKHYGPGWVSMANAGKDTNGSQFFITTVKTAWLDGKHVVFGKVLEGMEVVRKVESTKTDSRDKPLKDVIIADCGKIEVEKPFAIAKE
Procedure: as §1
Surface Plasmon Resonance (SPR)
as §2, §3, §4, §5, §6, §7, §8, §9, §10, §11
Kinetic titration experiments
as §12, §13, §14, §15, §16

Sequence of Cyp D (P30405 42-207): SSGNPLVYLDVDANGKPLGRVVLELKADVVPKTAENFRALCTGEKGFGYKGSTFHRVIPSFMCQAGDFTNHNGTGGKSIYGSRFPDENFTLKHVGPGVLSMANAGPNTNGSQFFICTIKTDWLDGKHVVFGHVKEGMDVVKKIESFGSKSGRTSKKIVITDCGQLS
Sequence of Cyp A (P62937 whole entry): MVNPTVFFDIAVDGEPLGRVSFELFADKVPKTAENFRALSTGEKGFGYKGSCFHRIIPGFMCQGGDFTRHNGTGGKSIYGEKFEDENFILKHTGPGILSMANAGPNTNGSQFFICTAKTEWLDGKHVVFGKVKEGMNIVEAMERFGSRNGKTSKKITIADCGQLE

| Kd (Cyp A) [µM] | Kd (Cyp D) [µM] | Kd (Cyp B) [µM] | SMILES |
| --- | --- | --- | --- |
| 7.1 ± 1.25 | 9.1 ± 0.9 | 4.5 ± 0.5 | CSc1ccccc1[C@H]1CCCN1C(=O)CN1C(=O)N(Cc2ccc(N)c(Cl)c2)CC1=NNC(C)=O [Compound 16, N-[[1-[(4-amino-3-chloro-phenyl)methyl]-2-oxo-3-[2-oxo-2-[(2R)-2-(2-methylsulfanylphenyl)pyrrolidin-1-yl]ethyl]imidazolidin-4-ylidene]amino]acetamide] |
| > 10 | > 10 | > 10 | CC(=O)NN=C1CN(Cc2ccc(N)c(Cl)c2)C(=O)N1CC(=O)N1CCC[C@@H]1c1ccccc1Br [Compound 17, N-[[1-[(4-amino-3-chloro-phenyl)methyl]-3-[2-[(2R)-2-(2-bromophenyl)pyrrolidin-1-yl]-2-oxo-ethyl]-2-oxo-imidazolidin-4-ylidene]amino]acetamide] |
| > 10 | > 10 | > 10 | CSc1ccccc1[C@H]1CCCN1C(=O)CN1C(=O)N(Cc2cnc(N)c(Cl)c2)CC1=NNC(C)=O [Compound 18, N-[[1-[(6-amino-5-chloro-3-pyridyl)methyl]-3-[2-[(2R)-2-(2-methylsulfanylphenyl) Pyrrolidin-1-yl]-2-oxo-ethyl]-2-oxo-imidazolidin-4-ylidene]amino]acetamide] |
| > 10 | > 10 | > 10 | CC(=O)NN=C1CN(Cc2cnc(N)c(Cl)c2)C(=O)N1CC(=O)N1CCC[C@@H]1c1ccccc1Br [Compound 19, N-[[1-[(6-amino-5-chloro-3-pyridyl)methyl]-2-oxo-3-[2-oxo-2-[(2R)-2-(2-bromophenyl) Pyrrolidin-1-yl]ethyl]imidazolidin-4-ylidene]amino]acetamide] |

Continued, compound first:

| SMILES | Kd (Cyp A) [µM] | Kd (Cyp D) [µM] | Kd (Cyp B) [µM] |
| --- | --- | --- | --- |
| CSc1ccccc1[C@H]1CCCN1C(=O)CNC(=O)N(Cc1cc(F)c(N)c(F)c1)Cc1nnn(C)n1 [Compound 5, 1-[(4-Amino-3,5-difluoro-phenyl)methyl]-1-[(2-methyltetrazol-5-yl)methyl]-3-[2-oxo-2-[(2R)-2-(2-methylsulfanylphenyl)pyrrolidin-1-yl]ethyl]urea] | 1.16 ± 0.2 | 1.01 ± 0.12 | 0.2 ± 0.04 |
| CSc1ccccc1[C@H]1CCCN1C(=O)CNC(=O)N(Cc1cc(F)c(N)c(F)c1)Cc1cn(C)nn1 [Compound 6, 1-[(4-Amino-3,5-difluoro-phenyl)methyl]-1-[(1-methyltriazol-4-yl)methyl]-3-[2-oxo-2-[(2R)-2-(2-methylsulfanylphenyl)pyrrolidin-1-yl]ethyl]urea] | 4.6 ± 2.4 | 2.97 ± 0.8 | 0.63 ± 0.1 |
| C#CCN(Cc1cc(F)c(N)c(F)c1)C(=O)NCC(=O)N1CCC[C@@H]1c1ccccc1SC [Compound 7, 1-[(4-Amino-3,5-difluoro-phenyl)methyl]-3-[2-oxo-2-[(2R)-2-(2-methylsulfanylphenyl)pyrrolidin-1-yl]ethyl]-1-prop-2-ynyl-urea] | 8.75 ± 2.9 | 5.85 ± 2 | 3.74 ± 0.78 |
| CSc1ccccc1[C@H]1CCCN1C(=O)CNC(=O)N(Cc1cnc(N)nc1)Cc1nnc(C)s1 [Compound 13, 1-[(2-Aminopyrimidin-5-yl)methyl]-1-[(5-methyl-1,3,4-thiadiazol-2-yl)methyl]-3-[2-oxo-2-[(2R)-2-(2-methylsulfanylphenyl)pyrrolidin-1-yl]ethyl]urea] | 0.67 ± 0.1 | 1.2 ± 0.3 | 0.184 ± 0.007 |
| CSc1ccccc1[C@H]1CCCN1C(=O)CNC(=O)N(Cc1cnc(N)c(Cl)c1)Cc1nnc(C)s1 [Compound 14, 1-[(6-Amino-5-chloro-3-pyridyl)methyl]-1-[(5-methyl-1,3,4-thiadiazol-2-yl)methyl]-3-[2-oxo-2-[(2R)-2-(2-methylsulfanylphenyl)pyrrolidin-1-yl]ethyl]urea] | 0.96 ± 0.13 | 2.4 ± 0.43 | 0.092 ± 0.075 |
